In paper PMC2774623 (Biochemistry, 2008):

How the values were obtained:
[1] = tested on: CK2α catalytic subunit; conditions: β interaction with CK2α; cited from earlier work
[2] = tested on: CK2 holoenzyme; experiment: Effect of CFTR peptides on substrate phosphorylation by CK2 holoenzyme; assay type: biochemical, human
[3] = tested on: CK2α catalytic subunit; experiment: Effect of CFTR peptides on substrate phosphorylation by CK2α catalytic subunit; assay type: biochemical, human; conditions: below 400 μM, murine NBD1, Figure 3A

## Δ wt: CK2 β-subunit; its interaction values with CK2α were from ref 29
[1]
  ka (M^−1 s^−1) × 10^3: 22.7 M^−1 s^−1 × 10^3
  kd (s^−1) × 10^−3: 0.93 s^−1 × 10^−3

## GTIKENIIFGVSYDEYRYR [CFTR 500−518 wild type]
[2]; peptides 80 μM, I-2 2.5 μM, HSP90 0.5 μM, Figure 5A
  stimulation of I-2 and HSP90 phosphorylation by CK2 holoenzyme: no stimulation
[3]
  effect on NBD1 phosphorylation by CK2α at lower peptide concentrations: slight stimulatory effect

## GTIKENIIGVSYDEYRYR [CFTR 500−518 ΔF508]
[2]; peptide concentration up to 800 μM, Figure 3B
  inhibition of holoenzyme-mediated NBD1 phosphorylation: no inhibition
